In US10604535B2, “Compounds, compositions and methods” (Denali Therapeutics Inc., priority 2016, dated 2020):
Where two headings read alike, the source gives them in different places.

Legend:
[1] = tested on: FADD-deficient Jurkat cells; assay: Cellular necroptosis assay (human TNFα-induced necrosis, CellTiter-Glo); assay type: cell-based; conditions: 48 h, read-out: Cell IC50
[2] = target: GST-hRIPK1 (8-327) (Homo sapiens (Human), UniProt Q13546); assay: Fluorescent Polarization Binding (FP Binding) assay
Chain of GST-hRIPK1 (8-327) (Q13546 8-327): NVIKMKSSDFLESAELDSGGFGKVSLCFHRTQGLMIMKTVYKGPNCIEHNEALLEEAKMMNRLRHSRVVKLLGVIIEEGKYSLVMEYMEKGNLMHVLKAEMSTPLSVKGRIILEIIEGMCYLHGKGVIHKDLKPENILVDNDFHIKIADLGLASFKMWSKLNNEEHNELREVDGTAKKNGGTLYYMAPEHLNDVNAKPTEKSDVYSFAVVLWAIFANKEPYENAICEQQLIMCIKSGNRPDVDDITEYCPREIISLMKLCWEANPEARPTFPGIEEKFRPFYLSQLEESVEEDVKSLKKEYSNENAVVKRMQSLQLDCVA

[3] = Homo sapiens, Jurkat, TNFα 10 ng/mL

| IC50 [2] | Compound | IC50 [1, 3] | IC50 ([1]; TNFα 10 ng/mL) | IC50 ([1]; Homo sapiens, Jurkat) |
| --- | --- | --- | --- | --- |
| 0.1 to 1000 nM | CN1C(=O)[C@@H](NC(=O)c2nn(Cc3ccccc3F)cc2F)COc2cccnc21 [Example 133, (S)-4-Fluoro-1-(2-fluorobenzyl)-N-(5-methyl-4-oxo-2,3,4,5-tetrahydropyrido[3,2-b][1,4]oxazepin-3-yl)-1H-pyrazole-3-carboxamide] | 0.1 to 1000 nM | – | – |
| 0.1 to 1000 nM | Cc1ncccc1Cn1cc(F)c(C(=O)N[C@H]2CCc3nccnc3N(C)C2=O)n1 [Example 182B, (S)-4-fluoro-N-(5-methyl-6-oxo-6,7,8,9-tetrahydro-5H-pyrazino[2,3-b]azepin-7-yl)-1-((2-methylpyridin-3-yl)methyl)-1H-pyrazole-3-carboxamide] | 0.1 to 1000 nM | – | – |
| 0.1 to 1000 nM | CN1C(=O)[C@@H](NC(=O)c2nn(Cc3ccccc3)cc2F)CCc2nn(C)cc21 [Example 109A, (S)-1-benzyl-N-(2,4-dimethyl-5-oxo-2,4,5,6,7,8-hexahydropyrazolo[4,3-b]azepin-6-yl)-4-fluoro-1H-pyrazole-3-carboxamide] | 0.1 to 1000 nM | – | – |
| 0.1 to 1000 nM | CN1C(=O)C(NC(=O)c2nnc(Cc3ccccc3)[nH]2)CC(F)(F)c2ccccc21 (stereo not drawn) [Example 10, 5-benzyl-N-(5,5-difluoro-1-methyl-2-oxo-2,3,4,5-tetrahydro-1H-benzo[b]azepin-3-yl)-4H-1,2,4-triazole-3-carboxamide] | 0.1 to 1000 nM | – | – |
| 0.1 to 1000 nM | [2H]C([2H])([2H])N1C(=O)[C@@H](NC(=O)c2nnc(Cc3ccccc3)o2)[C@@H](C)Oc2cccnc21 [Example 174, 5-benzyl-N-((2R,3S)-2-methyl-5-trideuteriomethyl-4-oxo-2,3,4,5-tetrahydropyrido[3,2-b][1,4]oxazepin-3-yl)-1,3,4-oxadiazole-2-carboxamide] | 0.1 to 1000 nM | – | – |
| 0.1 to 1000 nM | CN1C(=O)[C@@H](NC(=O)c2nnc(C3(c4ccccc4)CC3)[nH]2)COc2ccccc21 [Example 35, (S)—N-(5-methyl-4-oxo-2,3,4,5-tetrahydrobenzo[b][1,4]oxazepin-3-yl)-5-(1-phenylcyclopropyl)-4H-1,2,4-triazole-3-carboxamide] | 0.1 to 1000 nM | – | – |
| 0.1 to 1000 nM | CN1C(=O)[C@@H](NC(=O)c2nn(Cc3ccccc3F)cc2F)[C@H]2C[C@H]2c2nccnc21 [Example 179A, 4-fluoro-1-(2-fluorobenzyl)-N-((7S,7aS,8aR)-5-methyl-6-oxo-5,6,7,7a,8,8a-hexahydrocyclopropa[d]pyrazino[2,3-b]azepin-7-yl)-1H-pyrazole-3-carboxamide] | 0.1 to 1000 nM | – | – |
| 0.1 to 1000 nM | CN1C(=O)[C@@H](NC(=O)c2cc(Oc3ccccc3F)ccn2)[C@H]2C[C@H]2c2cccnc21 [Example 100A, 4-(2-fluorophenoxy)-N-((1aS,2S,8bR)-4-methyl-3-oxo-1,1a,2,3,4,8b-hexahydrocyclopropa[d]pyrido[2,3-b]azepin-2-yl)picolinamide] | 0.1 to 1000 nM | – | – |
| 0.1 to 1000 nM | CN1C(=O)[C@@H](NC(=O)c2nnc(Cc3ccccc3)[nH]2)CCc2nn(C)cc21 [Example 105A, (S)-5-benzyl-N-(2,4-dimethyl-5-oxo-2,4,5,6,7,8-hexahydropyrazolo[4,3-b]azepin-6-yl)-4H-1,2,4-triazole-3-carboxamide] | 0.1 to 1000 nM | – | – |
| 0.1 to 1000 nM | CN1C(=O)[C@@H](NC(=O)c2nn(Cc3ccccc3)cc2F)CCc2cccnc21 [Example 111B, (S)-1-benzyl-4-fluoro-N-(9-methyl-8-oxo-6,7,8,9-tetrahydro-5H-pyrido[2,3-b]azepin-7-yl)-1H-pyrazole-3-carboxamide] | 0.1 to 1000 nM | – | – |
| 0.1 to 1000 nM | CN1C(=O)[C@@H](NC(=O)c2nnc(Cc3ccccc3)[nH]2)COc2cnccc21 [Example 41, (S)-5-benzyl-N-(1-methyl-2-oxo-1,2,3,4-tetrahydropyrido[3,4-b][1,4]oxazepin-3-yl)-4H-1,2,4-triazole-3-carboxamide] | 0.1 to 1000 nM | – | – |
| 0.1 to 1000 nM | CN1C(=O)[C@@H](NC(=O)c2cc(Cc3ccccc3)on2)CCc2nccnc21 [Example 188, (S)-5-benzyl-N-(5-methyl-6-oxo-6,7,8,9-tetrahydro-5H-pyrazino[2,3-b]azepin-7-yl)isoxazole-3-carboxamide] | 0.1 to 1000 nM | – | – |
| 0.1 to 1000 nM | CN1C(=O)[C@@H](NC(=O)c2nn(Cc3cccc(C#N)c3)cc2F)CCc2cccnc21 [Example 152B, (S)-1-(3-cyanobenzyl)-4-fluoro-N-(9-methyl-8-oxo-6,7,8,9-tetrahydro-5H-pyrido[2,3-b]azepin-7-yl)-1H-pyrazole-3-carboxamide] | 0.1 to 1000 nM | – | – |
| 0.1 to 1000 nM | CN1C(=O)[C@@H](NC(=O)c2cc(Oc3ccccc3F)cnn2)COc2cccnc21 [Example 149, (S)-5-(2-fluorophenoxy)-N-(5-methyl-4-oxo-2,3,4,5-tetrahydropyrido[3,2-b][1,4]oxazepin-3-yl)pyridazine-3-carboxamide] | 0.1 to 1000 nM | – | – |
| 0.1 to 1000 nM | C[C@H]1Oc2cccnc2N(C)C(=O)[C@H]1NC(=O)c1cc(Oc2ccccc2F)cnn1 [Example 139, N-((2R,3S)-2,5-dimethyl-4-oxo-2,3,4,5-tetrahydropyrido[3,2-b][1,4]oxazepin-3-yl)-5-(2-fluorophenoxy)pyridazine-3-carboxamide] | 0.1 to 1000 nM | – | – |
| 0.1 to 1000 nM | CN1C(=O)[C@@H](NC(=O)c2nn(Cc3ccc(F)cc3)cc2F)[C@H]2C[C@H]2c2cccnc21 [Example 156B, 4-fluoro-1-(4-fluorobenzyl)-N-((1aS,2S,8bR)-4-methyl-3-oxo-1,1a,2,3,4,8b-hexahydrocyclopropa[d]pyrido[2,3-b]azepin-2-yl)-1H-pyrazole-3-carboxamide] | 0.1 to 1000 nM | – | – |
| 0.1 to 1000 nM | CN1C(=O)[C@@H](NC(=O)c2nnc(Cc3ccccc3)[nH]2)COc2c(Cl)cccc21 [Example 32, (S)-5-benzyl-N-(9-chloro-5-methyl-4-oxo-2,3,4,5-tetrahydrobenzo[b][1,4]oxazepin-3-yl)-4H-1,2,4-triazole-3-carboxamide] | 0.1 to 1000 nM | – | – |
| 0.1 to 1000 nM | C[C@H]1Oc2cccnc2N(C)C(=O)[C@H]1NC(=O)c1ncn(Cc2ccccc2)n1 [Example 136, 1-Benzyl-N-((2R,3S)-2,5-dimethyl-4-oxo-2,3,4,5-tetrahydropyrido[3,2-b][1,4]oxazepin-3-yl)-1H-1,2,4-triazole-3-carboxamide] | 0.1 to 1000 nM | – | – |
| 0.1 to 1000 nM | CN1C(=O)[C@@H](NC(=O)c2nc(F)c(Cc3ccccc3)s2)COc2cccnc21 [Example 126, (S)-5-benzyl-4-fluoro-N-(5-methyl-4-oxo-2,3,4,5-tetrahydropyrido[3,2-b][1,4]oxazepin-3-yl)thiazole-2-carboxamide] | 0.1 to 1000 nM | – | – |
| 0.1 to 1000 nM | CN1C(=O)[C@@H](NC(=O)c2nnc(C3CCc4ccccc43)[nH]2)COc2ccccc21 (stereo partly drawn) [Example 51, 5-(2,3-dihydro-1H-inden-1-yl)-N—((S)-5-methyl-4-oxo-2,3,4,5-tetrahydrobenzo[b][1,4]oxazepin-3-yl)-4H-1,2,4-triazole-3-carboxamide] | 0.1 to 1000 nM | – | – |
| 0.1 to 1000 nM | CN1C(=O)[C@@H](NC(=O)c2nnc(Cc3ccccc3)[nH]2)CCc2c1cnn2C [Example 101B, (S)-5-benzyl-N-(1,4-dimethyl-5-oxo-1,4,5,6,7,8-hexahydropyrazolo[4,3-b]azepin-6-yl)-4H-1,2,4-triazole-3-carboxamide] | 0.1 to 1000 nM | – | – |
| 0.1 to 1000 nM | O=C(N[C@H]1CCc2ccccc2-n2ccnc21)c1cc(Cc2ccccc2)on1 [Example 30, (S)-5-benzyl-N-(5,6-dihydro-4H-benzo[f]imidazo[1,2-a]azepin-4-yl)isoxazole-3-carboxamide] | 0.1 to 1000 nM | – | – |

| Compound | IC50 [2] | IC50 [1, 3] | IC50 ([1]; TNFα 10 ng/mL) | IC50 ([1]; Homo sapiens, Jurkat) |
| --- | --- | --- | --- | --- |
| C[C@H]1Oc2cccnc2N(C)C(=O)[C@H]1NC(=O)c1cc(Cc2ccccc2)on1 [Example 112, 5-benzyl-N-((2R,3S)-2,5-dimethyl-4-oxo-2,3,4,5-tetrahydropyrido[3,2-b][1,4]oxazepin-3-yl)isoxazole-3-carboxamide] | 0.1 to 1000 nM | 0.1 to 1000 nM | – | – |
| C[C@H]1Oc2cccnc2NC(=O)[C@H]1NC(=O)c1nnc(Cc2ccccc2)[nH]1 [Example 96, 5-benzyl-N-((2R,3S)-2-methyl-4-oxo-2,3,4,5-tetrahydropyrido[3,2-b][1,4]oxazepin-3-yl)-4H-1,2,4-triazole-3-carboxamide] | 0.1 to 1000 nM | 0.1 to 1000 nM | – | – |
| (S)-1-(2-cyanobenzyl)-4-fluoro-N-(5-methyl-4-oxo-2,3,4,5-tetrahydropyrido[3,2-b][1,4]oxazepin-3-yl)-1H-pyrazole-3-carboxamide [Example 153] | 0.1 to 1000 nM | – | 0.1 to 1000 nM | – |
| C[C@H]1Oc2cccnc2N(C)C(=O)[C@H]1NC(=O)c1cn(Cc2ccccc2)nn1 [Example 203, 1-benzyl-N-((2R,3S)-2,5-dimethyl-4-oxo-2,3,4,5-tetrahydropyrido[3,2-b][1,4]oxazepin-3-yl)-1H-1,2,3-triazole-4-carboxamide] | 0.1 to 1000 nM | 0.1 to 1000 nM | – | – |
| CN1C(=O)[C@@H](NC(=O)c2cc(F)n(Cc3ccccc3)n2)COc2cccnc21 [Example 165, (S)-1-benzyl-5-fluoro-N-(5-methyl-4-oxo-2,3,4,5-tetrahydropyrido[3,2-b][1,4]oxazepin-3-yl)-1H-pyrazole-3-carboxamide] | 0.1 to 1000 nM | – | – | 0.1 to 1000 nM |
| CN1C(=O)[C@@H](NC(=O)c2cc(Cc3ccccc3)on2)C2CC2c2ccccc21 (stereo partly drawn) [Example 7, 5-benzyl-N-((2S)-4-methyl-3-oxo-1,1a,2,3,4,8b-hexahydrobenzo[b]cyclopropa[d]azepin-2-yl)isoxazole-3-carboxamide] | 0.1 to 1000 nM | 0.1 to 1000 nM | – | – |
| CN1C(=O)[C@@H](NC(=O)c2nn(Cc3cccc(C#N)c3)cc2F)COc2cccnc21 [Example 144, (S)-1-(3-cyanobenzyl)-4-fluoro-N-(5-methyl-4-oxo-2,3,4,5-tetrahydropyrido[3,2-b][1,4]oxazepin-3-yl)-1H-pyrazole-3-carboxamide] | 0.1 to 1000 nM | 0.1 to 1000 nM | – | – |
| Cc1c(F)c(C(=O)N[C@H]2COc3ccccc3NC2=O)nn1Cc1ccccc1 [Example 45, (S)-1-benzyl-4-fluoro-5-methyl-N-(4-oxo-2,3,4,5-tetrahydrobenzo[b][1,4]oxazepin-3-yl)-1H-pyrazole-3-carboxamide] | 0.1 to 1000 nM | 0.1 to 1000 nM | – | – |
